System: T1, Ultra-Glo™ luciferase
T1 construct: gene Firefly luciferase; HisLink purified; starting enzyme also obtained from Promega
Test: luminescence, Michaelis-Menten
Format: biochemical
Settings: 1 mM ATP, Bright-Glo buffer, 25 °C
Text: luminescence, Michaelis-Menten on Ultra-Glo™ luciferase

| Km | SMILES |
| --- | --- |
| 7.47 µM | CC1(C)SC(c2nc3ccc(O)cc3s2)=NC1C(=O)O (racemic) [III-a, 2-(6-Hydroxybenzo[d]thiazol-2-yl)-5,5-dimethyl-4,5-dihydrothiazole-4-carboxylic acid] |
| 1.71 µM | O=C(O)C1N=C(c2nc3ccc(O)cc3s2)SC12CC2 (racemic) [III-b, 5-(6-Hydroxybenzo[d]thiazol-2-yl)-4-thia-6-azaspiro[2.4]hept-5-ene-7-carboxylic acid] |

| SMILES | Km |
| --- | --- |
| O=C(O)[C@H]1CSC(c2nc3ccc(O)cc3s2)=N1 [LH2, D-luciferin] | 0.49 µM |

— paper PMC7735563, “5,5-Dialkylluciferins are thermal stable substrates for bioluminescence-based detection systems” (PLoS ONE, 2020)
